Like-named read-outs stand apart in the source and are kept apart here.
Tests used:
[1] = system: Karpas422 cells; assay: Tumor cell growth inhibition assay; format: cell-based
In short: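 Karpas422 cells (2,000/well) in Alpha-MEM with 10% FBS dosed across 10 concentrations (top 5 uM) and grown six days at 37° C., 5% CO2. Viability read as ATPlite luminescence.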

[2] = system: BCL6 reporter construct (3xBCL6-TK-Luc) in SuDHL4 cells; assay: Cell-based luciferase assay
In short: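 SuDHL4 cells stably carrying a 3×BCL6-site TK-promoter firefly luciferase reporter, seeded at 15,000 cells/well, were dosed over a 10-point range (top 10 uM) and grown two days at 37 °C, 5% CO2. Luminescence then read after adding neolite reagent at room temperature.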

[3] = biological target: BCL6 BTB domain (Homo sapiens (Human), UniProt P41182); assay: Surface plasmon resonance (SPR) assay; format: binding; conditions: BCL6 BTB domain captured on SA chip, single cycle kinetics
[4] = Homo sapiens, KARPAS-422, 144 h, read-out: Tumor Growth Inhibition in Karpas-422 (IC50, uM), Karpas422 cells, six days, ATPlite
[5] = Homo sapiens, SU-DHL-4, 48 h, read-out: Luciferase-Assay EC50, uM), SuDHL4-3xBCL6-TK-Luc cells, two days, high dose 10 uM

SMILES	IC50 [1, 4] [µM]	EC50 [2, 5] [µM]	Kd [3] [nM]	IC50 ([1]; read-out: Tumor Growth Inhibition in Karpas-422 (IC50), Karpas422 cells, six days, ATPlite) [µM]	EC50 ([2]; read-out: Luciferase-Assay EC50, SuDHL4-3xBCL6-TK-Luc cells, two days, high dose 10 uM) [µM]
Cn1cnc2c(c(-c3cc(Cl)c(O)c(C(N)=O)c3)cn2CC(=O)Nc2cc(N3CCOC4COCC43)ncc2Cl)c1=O (stereo not drawn) [Compound I-277]	0.255	0.418	21	–	–
C[C@H]1CN(C2COC2)CCN1c1cc(NC(=O)Cn2cc(-c3cc(F)c(O)c(C(N)=O)c3)c3c(=O)n(C)cnc32)c(Cl)c(F)n1 [Compound I-438]	0.0508	0.0686	2.5	–	–
Cn1cnc2c(c(-c3cc(Cl)c(O)c(C(N)=O)c3)cn2CC(=O)Nc2cc(N3CCN4C(=O)CCC4C3)ncc2Cl)c1=O (stereo not drawn) [Compound I-236]	0.385	0.739	16.6	–	–
Cn1cnc2c(c(-c3cc(Cl)c(O)c(C(N)=O)c3)cn2CC(=O)Nc2cc(N3C[C@H]4CCO[C@H]4C3)ncc2Cl)c1=O [Compound I-74]	0.123	2.3	2	–	–
C[C@H](C1CC1)N1CCN(c2cc(NC(=O)Cn3cc(-c4cc(C(N)=O)c(O)c(F)c4F)c4c(=O)n(C)cnc43)c(Cl)c(F)n2)[C@@H](C)C1 [Compound I-455]	0.204	0.307	11.2	–	–
CCN1CCN(c2cc(NC(=O)Cn3cc(-c4cc(Cl)c(O)c(C(N)=O)c4)c4c(=O)n(C)c(C(F)(F)F)nc43)c(Cl)cn2)[C@@H](C)C1 [Compound I-376]	0.366	0.385	73.4	–	–
C[C@H]1CCCN1c1cc(NC(=O)Cn2cc(-c3cc(Cl)c(O)c(C(N)=O)c3)c3c(=O)n(C)cnc32)c(Cl)cn1 [Compound I-136]	0.96	0.578	55	–	–
CN1CC2CN(c3cc(NC(=O)Cn4cc(-c5cc(F)c(O)c(C(N)=O)c5)c5c(=O)n(C)cnc54)c(Cl)cn3)CC2C1 (stereo not drawn) [Compound I-287]	1.44	1.71	18.6	–	–
CN1CC2CC(C1)N2c1cc(NC(=O)Cn2cc(-c3cc(Cl)c(O)c(C(N)=O)c3)c3c(=O)n(C)cnc32)c(Cl)cn1 [Compound I-449]	1.97	2.48	60.3	–	–
CN1CC2CCC(C1)N2c1cc(NC(=O)Cn2cc(-c3cc(F)c(O)c(C(N)=O)c3)c3c(=O)n(C)cnc32)c(Cl)cn1 [Compound I-477]	0.272	0.328	10.1	–	–
COC[C@H]1COCCN1c1cc(NC(=O)Cn2cc(-c3cc(Cl)c(O)c(C(N)=O)c3)c3c(=O)[nH]cnc32)c(Cl)cn1 [Compound I-164]	0.251	0.601	7.76	–	–
Cc1nc2c(c(-c3cc(C(N)=O)c(O)c(F)c3F)cn2CC(=O)Nc2cc(N3CCN(C)C[C@@H]3C(C)C)ncc2Cl)c(=O)n1C [Compound I-378]	1.22	0.944	118	–	–
Cn1cnc2c(c(-c3cc(Cl)c(O)c(C(N)=O)c3)cn2CC(=O)Nc2cc(N3CC4(CCOC4)C3)ncc2Cl)c1=O [Compound I-351]	1.2	0.591	40.1	–	–
C[C@H]1COCCN1c1cc(NC(=O)Cn2cc(-c3cc(F)c(O)c(C(N)=O)c3F)c3c(=O)n(C)cnc32)c(Cl)c(F)n1 [Compound I-472]	10	3.8	55.7	–	–
C[C@H]1CN(CC(F)F)CCN1c1cc(NC(=O)Cn2cc(-c3cc(C(N)=O)c(O)c(F)c3F)c3c(=O)n(C)cnc32)c(Cl)c(F)n1 [Compound I-469]	0.153	0.141	35.5	–	–
Cn1cnc2c(c(-c3cc(Cl)c(O)c(C(N)=O)c3)cn2CC(=O)Nc2cc(N3CC(C)(C)NC(C)(C)C3)ncc2Cl)c1=O [Compound I-201]	0.155	0.317	11.1	–	–

SMILES	IC50 [1, 4] [µM]	EC50 [2, 5] [µM]	Kd [3] [nM]	IC50 ([1]; read-out: Tumor Growth Inhibition in Karpas-422 (IC50), Karpas422 cells, six days, ATPlite) [µM]	EC50 ([2]; read-out: Luciferase-Assay EC50, SuDHL4-3xBCL6-TK-Luc cells, two days, high dose 10 uM) [µM]
C[C@H]1CN(Cc2ccco2)CCN1c1cc(NC(=O)Cn2cc(-c3cc(C(N)=O)c(O)c(F)c3F)c3c(=O)n(C)cnc32)c(Cl)cn1 [Compound I-405]	0.254	0.459	32.6	–	–
CCN1CCN(c2cc(NC(=O)Cn3cc(-c4cc(Cl)c(O)c(C(N)=O)c4)c4c(=O)n(C)cnc43)c(Cl)c(F)n2)[C@@H](C)C1 [Compound I-427]	0.114	0.156	13.8	–	–
Cn1cnc2c(c(-c3cc(Cl)c(O)c(C(N)=O)c3)cn2CC(=O)Nc2cc(N3CC4CCC(F)(F)C4C3)ncc2Cl)c1=O (stereo not drawn) [Compound I-278]	1.13	0.622	42.5	–	–
CC1OCCN(c2cc(NC(=O)Cn3cc(-c4cc(Cl)c(O)c(C(N)=O)c4)c4c(=O)n(C)cnc43)c(Cl)cn2)C1C (stereo not drawn) [Compound I-83]	0.119	0.148	16	–	–
COc1c(O)c(C(N)=O)cc(-c2cn(CC(=O)Nc3cc(N4C[C@@H](C)N[C@@H](C)C4)ncc3Cl)c3ncn(C)c(=O)c23)c1F [Compound I-193]	2.66	5.39	229	–	–
COCCN1CCN(c2cc(NC(=O)Cn3cc(-c4cc(Cl)c(O)c(C(N)=O)c4)c4c(=O)n(C)cnc43)c(Cl)cn2)[C@@H](C)C1 [Compound I-415]	0.122	0.0872	5.95	–	–
Cc1nc2c(c(-c3cc(Cl)c(O)c(C(N)=O)c3)cn2CC(=O)Nc2cc(N3CC(C)(C)N(C)C(C)(C)C3)ncc2Cl)c(=O)n1C [Compound I-232]	0.222	0.267	11.8	–	–
C[C@H]1CN(C)CCN1c1cc(NC(=O)Cn2cc(-c3cc(C(N)=O)c(O)c(Cl)c3F)c3c(=O)n(C)c(C(F)(F)F)nc32)c(Cl)cn1 [Compound I-267]	3.79	2.27	582	–	–
Cn1cnc2c(c(-c3cc(Cl)c(O)c(C(N)=O)c3)cn2CC(=O)Nc2cc(N3CCOC4(CCC4)C3)ncc2Cl)c1=O [Compound I-350]	0.897	0.486	63.9	–	–
Cc1cc(NC(=O)Cn2cc(-c3cc(Cl)c(O)c(C(N)=O)c3)c3c(=O)n(C)cnc32)c(Cl)cn1 [Compound I-334]	0.829	0.475	30.5	–	–
Cn1cnc2c(c(-c3cc(Cl)c(O)c(C(N)=O)c3)cn2CC(=O)Nc2cc(N3CC4CC3CN4CC(F)(F)F)ncc2Cl)c1=O (stereo not drawn) [Compound I-362]	0.337	0.226	38	–	–
CC(C)N1CCN(c2cc(NC(=O)Cn3cc(-c4cc(F)c(O)c(C(N)=O)c4)c4c(=O)n(C)cnc43)c(Cl)cn2)[C@@H](C)C1 [Compound I-295]	0.106	0.14	7.84	–	–
C[C@H]1CN(CC2CCC2)CCN1c1cc(NC(=O)Cn2cc(-c3cc(C(N)=O)c(O)c(F)c3F)c3c(=O)n(C)cnc32)c(Cl)cn1 [Compound I-408]	0.463	0.759	38.2	–	–
C[C@@H]1COC[C@H](C)N1c1cc(NC(=O)Cn2cc(-c3cc(Cl)c(O)c(C(N)=O)c3)c3c(=O)n(C)cnc32)c(Cl)cn1 [Compound I-264]	0.376	0.347	30.3	–	–
C[C@H]1COCCN1c1cc(NC(=O)Cn2cc(-c3cc(Cl)c(O)c(C(N)=O)c3)c3c(=O)n(C)c(-c4ccccc4)nc32)c(Cl)cn1 [Compound I-248]	0.29	11.9	326	–	–
Cn1cnc2c(c(-c3cc(Cl)c(O)c(C(N)=O)c3)cn2CC(=O)Nc2c(Cl)cnc(N3CCOCC3)c2F)c1=O [Compound I-191]	–	–	122	4.72	5.42

From patent US11518764B2, “Substituted heteroaryls as inhibitors of the BCL6 BTB domain protein-protein interaction” (Ontario Institute for Cancer Research (OICR), priority 2018, dated 2022)
